# Measured values as given in article PMC10338474 (Nature Communications, 2023).
# Values joined by “and” are separate entries in the source; they are usually repeats but may differ in a detail not shown here. Identical values can stand only once. “Also recorded” adds a separate entry of the source. Like-named read-outs stand apart in the source and are kept apart here.
# Assays:
# [1] = target: EPAC1^GEF (Homo sapiens, UniProt O95398); details: cited from earlier work
# [2] = system: Rap1 GTPase in cardiomyocytes; parameters: method as in PMID 23139415; details: cited from earlier work
# [3] = target: EPAC1^α-CNB-GEF (Homo sapiens, UniProt O95398); details: for Dmax (largest protein dimension): EPAC1^α-CNB-GEF with the single ligand (cAMP 1 mM/200 μM or CE3F4 100 μM racemic mix)
# Experimental: All small angle X-ray scattering (SAXS) data were obtained from size exclusion chromatography-SAXS (SEC-SAXS) experiments on the SWING beamline (SOLEIL synchrotron, France), using the EPAC1^α-CNB-GEF construct. EPAC1 was used at a concentration of 60 μM to obtain high SAXS intensities. Samples were injected on high-performance liquid chromatography (HPLC) size exclusion column (BioSEC-3 300 Å, Agilent Technologies, Inc.) equilibrated with the elution buffer (20 mM Tris-HCl pH 8.0, 150 mM NaCl, 0.5 mM EDTA). […] Data reduction to absolute units, frame averaging, and subtraction were done using the FOXTROT program suite (SOLEIL synchrotron). Frames corresponding to the high-intensity fractions of the peak and having a constant radius of gyration (Rg) within error were averaged. […] Rg values were evaluated by Guinier Wizard using the data within the range of Guinier approximation sRg < 1.3 and by Distance Distribution Wizard, both of which are modules of the PRIMUS program. The maximum distance Dmax was estimated with PRIMUS and refined by trial and error with GNOM. The distance distribution functions were calculated with GNOM. SAXS profiles were compared with DATCMP (ATSAS suite).
# [4] = system: EPAC1^α-CNB-GEF; details: cited from earlier work
# [5] = system: arrhythmia in rats; details: cited from earlier work
# [6] = target: T1, EPAC1^FL (Homo sapiens, UniProt O95398); test: Liposome flotation binding assay of EPAC1^FL
# T1 construct: Human full-length EPAC1 (EPAC1^FL) was cloned into a pET28a vector (6xHis tag in N-terminus); made in house; host or cells: E. coli BL21 (DE3) pG-KJE8
# T1 sequence (O95398 1-881 isoform O95398-3): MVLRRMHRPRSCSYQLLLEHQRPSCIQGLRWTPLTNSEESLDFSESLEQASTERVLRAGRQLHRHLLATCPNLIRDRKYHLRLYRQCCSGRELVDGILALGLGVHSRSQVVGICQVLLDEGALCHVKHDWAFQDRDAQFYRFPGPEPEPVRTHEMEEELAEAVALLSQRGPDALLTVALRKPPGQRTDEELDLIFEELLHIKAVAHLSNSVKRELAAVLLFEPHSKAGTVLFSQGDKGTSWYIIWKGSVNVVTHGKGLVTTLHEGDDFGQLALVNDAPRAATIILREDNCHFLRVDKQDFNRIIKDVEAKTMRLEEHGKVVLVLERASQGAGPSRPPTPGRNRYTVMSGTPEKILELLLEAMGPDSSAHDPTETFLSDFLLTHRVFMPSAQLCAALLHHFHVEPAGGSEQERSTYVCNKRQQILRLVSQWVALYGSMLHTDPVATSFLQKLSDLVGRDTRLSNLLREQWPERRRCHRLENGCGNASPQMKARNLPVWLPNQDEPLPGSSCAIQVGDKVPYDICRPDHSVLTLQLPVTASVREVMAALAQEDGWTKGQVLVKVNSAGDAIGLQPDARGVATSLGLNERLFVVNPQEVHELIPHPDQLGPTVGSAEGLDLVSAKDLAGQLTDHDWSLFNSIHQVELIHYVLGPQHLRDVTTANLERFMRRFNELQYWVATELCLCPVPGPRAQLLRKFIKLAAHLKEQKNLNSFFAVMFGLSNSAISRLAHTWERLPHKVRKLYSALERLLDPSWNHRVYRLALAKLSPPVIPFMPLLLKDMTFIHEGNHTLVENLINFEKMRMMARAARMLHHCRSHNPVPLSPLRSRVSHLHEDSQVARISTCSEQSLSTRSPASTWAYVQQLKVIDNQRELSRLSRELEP
# [7] = system: arrhythmia in mice; details: cited from earlier work
# [8] = system: isolated CNB domain of EPAC1; details: NMR; without competing with cAMP; cited from earlier work
# [9] = target: EPAC1^CNB-GEF (Homo sapiens, UniProt O95398); details: in solution; Supplementary Fig. 4d
# Experimental: For kinetics assays, the Rap1 GTPase was loaded with BODIPY-FL-GDP (Jena Bioscience) prior to nucleotide exchange by incubating 50 μM Rap1 with 250 μM BODIPY-GDP and 10 mM EDTA for 30 min at room temperature. Nucleotide exchange was stopped by the addition of 75 mM MgCl2. Removal of excess nucleotides and buffer exchange were done on a PD SpinTrap G-25 (GE HealthCare Life Science). Nucleotide exchange kinetics were monitored by following the decay of BODIPY-GDP fluorescence upon replacement by GTP, using excitation and emission wavelengths of 485 and 530 nm, respectively. Measurements were carried out at 30 °C on a Cary Eclipse fluorimeter (Varian) under stirring in 800 μL cuvettes, or in microplate wells (150 μL) on a FLEXstation (Molecular Devices). […] Liposomes were added at 100 μM (total lipids). For kinetics in solution, kobs values were determined from a mono-exponential fit. […] In this case, kobs values corresponding to the fast component were used.
# [10] = target: T1, EPAC1^FL; test: Nucleotide exchange kinetics assay (BODIPY-GDP dissociation from Rap1) with full-length EPAC1; format: biochemical; details: for increase in affinity, PM liposomes vs solution: ratio of apparent KD
# Experimental: Liposomes were added at 100 μM (total lipids).
# Nonlinear regression based on a straight line model was performed with GraphPad Prism. EPAC1 pseudo first order catalytic efficiencies kcat/KM were deduced from the slopes of the curves, according to the Michaelis–Menten formalism. […] Nonlinear regression based on a sigmoidal model was performed with GraphPad Prism. KD and kmax were deduced from the EC50 and top values of the curves, respectively.
# [11] = target: CNB domain-containing EPAC1 constructs (Homo sapiens, UniProt O95398); details: Supplementary Fig. 2c
# [12] = system: EPAC1; details: cited from earlier work
# [13] = target: Rap1/EPAC1^α-CNB-GEF complex (Homo sapiens, UniProt O95398); details: cAMP 1 mM, EDTA, DMSO
# Experimental: EPAC1^α-CNB-GEF was used at 25 μM in all experiments. […] Proteins samples were injected into a 25 mL Superdex 200 gel filtration column (GE Healthcare) at 0.5 mL/min. Fractions were analyzed by SDS-PAGE.
smiles,measurement,setting,value
CC1CCc2c(cc(Br)c(F)c2Br)N1C=O (stereo not shown) [CE3F4],inhibition of the GEF domain of EPAC1 alone,[1],does not inhibit
same,activation of the Rap1 GTPase in cardiomyocytes,[2],efficiently inhibits
same,"Rg, Guinier analysis",[3]; +cAMP +CE3F4,33.41 Å
same,"Rg, P(r) analysis",[3]; +cAMP +CE3F4,33.84 Å
same,Dmax (largest protein dimension),[3],114 Å
same,"Rg, Guinier analysis",[3]; single ligand,32.58 Å
same,"Rg, P(r) analysis",[3]; single ligand,32.86 Å
same,in vitro activation of Rap1 by EPAC1^α-CNB-GEF,[4],inhibits
same,arrhythmia,[5],prevents
same,"Binding (%) of EPAC1^FL to PM liposomes, DMSO set to 100%","[6]; Fig. 4f left, without cAMP, CE3F4 50 μM",81%
same,arrhythmia,[7],prevents
same,binding to the isolated CNB domain,[8],binds
"Nc1ncnc2c1ncn2[C@@H]1O[C@@H]2COP(=O)(O)O[C@H]2[C@H]1O [cAMP, cyclic adenosine monophosphate]",effect of cAMP on intrinsic GEF activity of EPAC1^CNB-GEF,[9],increased
same,"increase in affinity, PM liposomes vs solution",[10],278 fold
same,effect of cAMP on binding of CNB domain-containing EPAC1 constructs to PM liposomes,[11],does not increase
same,Dmax (largest protein dimension),[3],130 Å
same,"Rg, Guinier analysis",[3]; single ligand,34.91 Å
same,"Rg, P(r) analysis",[3]; single ligand,35.53 Å
same,formation of the Rap1-EPAC1^α-CNB-GEF complex,[13],readily observed
same,effect of addition of cAMP on EPAC1^FL binding to PS-PIP2 liposomes with cholesterol,"[6]; flotation assay, 1 mM cAMP",no discernible effect
"CO[C@@H]1[C@@H]2OP(=O)(O)OC[C@H]2O[C@H]1n1c(Sc2ccc(Cl)cc2)nc2c(N)ncnc21 [compound 007, 8-(4-chlorophenylthio)−2’-O-methyl-cAMP]","increase of kmax, PM liposomes vs solution",[10],12.3 fold and 12 fold
same,Kd,"[10]; in solution, Supplementary Table 5 mean",1570 nM
same,"increase in affinity, PM liposomes vs solution",[10],107 fold
same,maximal activity (kmax) compared to cAMP,"[12]; in solution, in vitro",threefold; also recorded: three times higher
